The target of the test is MT1-MMP (Homo sapiens, UniProt P50281). Description: FRET triple-helical peptide. The class given is biochemical.

What is called IC50 is the concentration that gives 50% inhibition. Read a high IC50 as lower potency.

Take `CNC(=O)[C@@H](NC(=O)[C@H](CC(C)C)[C@H](O)C(=O)NO)C(C)(C)C` [marimastat]: the IC50 was found to be 19 ± 3 nM.

Values taken from PMC6536371 (Chemical biology & drug design, 2018).
